Reference: US20220091133A1, “METHODS AND ASSAYS FOR IMMUNE PHENOTYPING” (Washington University, priority 2020, published 2022)

Legend:
[1] = tested on: PBMCs (T cell IFN-γ production); type: cell-based, human
[2] = tested on: diluted whole blood (T cell IFN-γ production); experiment: Whole blood ELISpot, CD3/CD28-stimulated IFN-γ production (Example 2); type: cell-based, human
Experimental: Innate and adaptive immune function was assessed using ELISpot analysis by measurement of the production of IFN-γ and TNF-α in ex vivo-stimulated cells following overnight culture. Capture Ab precoated 96-well polyvinylidene difluoride-backed strip plates were used for single color enzymatic assays (ImmunoSpot; Cellular Technology [CTL], Cleveland, Ohio) for detection of human IFN-γ and TNF-α. ELISpot culture procedure was followed as directed using instructions from the ELISpot kit. Samples were run in duplicate for each test condition. Plates were prepared with stimulant and were incubated at 37° C. and 5% CO2 for 30 min prior to plating cells. Identical conditions were prepared for comparison of whole blood assay to PBMC assay, and culture media alone was used as a negative control. Combination of 500 ng/ml of anti-CD3 (clone HIT3a; BioLegend) with 2.5 μg/ml of anti-CD28 (clone CD28.2; BioLegend) Abs were used to induce IFN-γ, and 2.5 ng/ml LPS (from Salmonella abortus equi S-form, ALX-581-009; Enzo Life Sciences, Farmingdale, N.Y.) was used to induce TNF-α wells. Total well volume for all samples was 200 μl. PBMCs were plated into wells in quantities of 2.5×10^4 cells per well for IFN-γ and 2.5×10^3 cells per well for TNF-α. The relevant volume for 5×10^4 leukocytes of diluted whole blood (in culture media) was plated in each well based on complete blood counts performed in the clinical research core laboratory at Washington University. PBMCs and diluted whole blood were costimulated with and without recombinant human IL-7 (Escherichia coli-derived protein, product no. 207-IL; R&D Systems, Minneapolis, Minn.). ELISpot assays were incubated overnight for 18-22 h at 37° C. and 5% CO2 as previously described (29). […]
Samples were scanned, analyzed, and quality controlled for spot count, spot area, and TWI using a Cellular Technology series 6 ImmunoSpot Universal Analyzer with ImmunoSpot 7.0 professional software (Cellular Technology Analyzers, Shaker Heights, Ohio). […]
The number of cytokine-secreting cells present in each ELISpot well is referred to as spot-forming units (SFU) and is reported in two distinct ways. […] The number of lymphocytes in each well was determined based upon the absolute lymphocyte count as measured by the patients' complete blood count. For ELISpot studies involving PBMCs, flow cytometry was performed on the PBMC fraction, and the number of lymphocytes, monocytes, and residual neutrophils were determined. […] Samples were acquired on FACScan (Becton Dickenson, Franklin Lakes, N.J.) with a five-color modification (CyTek Biosciences, Fremont, Calif.) and analyzed using FlowJo 10.2 (FlowJo, Ashland, Oreg.) as previously described (28). […]

[3] = tested on: Trichosporon asahii and Saksenaea species; experiment: Tissue, wound, blood and bone cultures of the fungal wound sepsis patient; type: in vivo, human
Source text: They were aggressively treated with daily or alternating-day operative debridement, broad-spectrum parenteral and topical antibacterial and antifungal therapy. Antimicrobial therapy included ceftazidime, metronidazole, trimethoprim-sulfamethoxazole, micafungin, amphotericin B, and posaconazole (FIG. 29), as well as VERAFLO vac instillation of antimicrobials into the wound bed. The patient's polymicrobial soft tissue infection continued to advance and was accompanied by multisystem organ failure and shock. Over a 4-week period, they required debridement of >3000 cm^2 of skin, subcutaneous tissue, and muscle involving the entire perineum, bilateral thighs, buttocks, and circumferential abdominal wall (FIG. 28B).
Tissue histology also became negative for fungus at approximately the same time as tissue cultures (FIG. 28E).

[4] = tested on: T cells (IFN-γ production); experiment: IFN-γ ELISPOT on patient PBMCs before and during IL-7 therapy (Example 3); type: in vivo, human; details: anti-CD3/anti-CD28 ex vivo stimulation, before vs during IL-7 therapy
Experimental: The effect of IL-7 in terms of improving the patient's T cell function was evaluated by an ex vivo stimulation assay using anti-CD3 and anti-CD28 antibodies (BioLegend, San Diego, Calif., USA) on an IFN-γ ELISPOT assay (Cellular Technologies Limited, Shaker Heights, Ohio, USA), which was performed as previously described.

[5] = tested on: SARS-CoV-2-specific T cells; experiment: ELISpot, IFN-γ response to SARS-CoV-2 spike glycoprotein and nucleocapsid peptide pool (Example 5); type: in vivo, human; details: before vs after IL-7 therapy
[6] = tested on: PBMCs (TNF-α-producing cells); experiment: ELISpot, lipopolysaccharide-stimulated TNF-α in patient PBMCs before and after IL-7 therapy (Example 5); type: in vivo, human; details: concomitant with initiation of IL-7 treatment
[7] = tested on: SARS-CoV-2
[8] = tested on: sepsis-induced lymphopenia; details: clinical trial, reference 54; cited from earlier work
[9] = tested on: lymphopenia in COVID-19; details: preliminary studies, reference 24; cited from earlier work

IL-7: recombinant human IL-7, immunoadjuvant and potent T cell activator; R&D Systems ex vivo, RevImmune for patients
mean number of IFN-γ-producing T cells following ex vivo administration of IL-7 ([1]; COVID-19 patient PBMCs, anti-CD3/anti-CD28 + IL-7 50 ng/mL overnight, control without IL-7 101±21, P<0.0001): 201±36
increase of IFN-γ production of stimulated T cells by ex vivo IL-7 ([1]; COVID-19 patients, ELISpot): ~2 fold
effect of IL-7 to increase the number of IFN-γ-producing T cells ([1]; septic and CINS patients): also observed
effect of IL-7 on IFN-γ SFUs ([2]; healthy subjects and CINS patients): significantly increased
increase in IFN-γ spot numbers with IL-7 ([2]; sepsis nonsurvivors): 312%±240
increase in IFN-γ spot numbers with IL-7 ([2]; sepsis survivors): 102%±32
increase in the number of IFN-γ spots when stimulated with IL-7 ([2]; septic patients overall (n=19), CD3/CD28 + IL-7, p<0.005): 172%±77
tissue cultures after initiation of IL-7 therapy ([3]; by the fifth dose of IL-7): persistently negative cultures
time blood, wound and bone cultures stayed negative for bacterial or fungal pathogens after completing IL-7 therapy ([3]; human, in vivo): 40 days
increase in the proportion of activated, IFN-γ-producing T cells from baseline [4]: 1.4 fold
improvement in the number of SARS-CoV-2 spike protein and nucleocapsid specific T cells [5]: over 30 fold
increase in the number of TNF-α-producing cells [6]: multifold increases
increase of absolute lymphocyte count (ALC) ([7]; COVID-19 patient after IL-7): ~10 fold
discharged home, day of hospitalization ([7]; after IL-7 therapy): 24 days
mechanical ventilation discontinued, day after ICU admission ([7]; after initiation of IL-7 therapy): 15 days
effect on sepsis-induced lymphopenia [8]: reversed sepsis-induced lymphopenia
tolerability of IL-7 in patients with sepsis [8]: well tolerated
increase of ALCs in COVID-19 disease patients treated with IL-7 [9]: two- to three-fold
tolerability of IL-7 in COVID-19 disease patients [9]: well tolerated
